Assays:
[1] = system: three dimensional human skin model MEL-300 (normal human skin keratinocytes containing normal human epidermal melanocytes); test: Inhibitory effects for melanocyte dendrite formation (three dimensional human skin model); assay type: cell-based; settings: 0.1 ml of a 30 mmol/l solution, MEL-300 cups, 7 days of incubation, vs 0.2% ethanol control, Scheffe, significance level 5%, n=3 (FIG. 1)
Experimental: (§1) Melanin formation inhibitory effects of the compounds 4 and 5 shown in Table 1 were evaluated using three dimensional human skin model MEL-300 (normal human skin keratinocytes containing normal human epidermal melanocytes). The MEL-300 skin model cups were transferred to a 6-well plate, each well containing 0.9 ml of EPI-100-LLMM maintenance medium, and were pre-incubated at 37° C. and 5% CO2 for 1 hour.
(§2) The maintenance medium was suction removed, and 5 ml of the maintenance medium was newly added. Thereafter, 0.1 ml of a 30 mmol/l solution of the compound 4 or 5 was added to the MEL-300 skin model cups, and the resultant were incubated. The controls were given 0.1 ml of a 0.2% ethanol solution.
The maintenance medium and the test substance were replaced every two days, and the incubation was performed for 7 days. After the 7 days of incubation, the cells inside the three dimensional human skin model cup were photographed, and the proportion (%) of the area of melanocytes was calculated by image analysis. Significant difference was tested by a post-hoc test (Scheffe method). The significance level was 5%. […] In this experiment, n=3.

C3H mice = test: Accelerating effects for mouse body hair growth; assay type: in vivo; settings: male C3H/HeN mice, shaved dorsal region, 0.1 ml of a 50 μmol/g ointment once a day, Day 18, vs coating stimulation only, Scheffe, significance level 5%, n=6 (FIG. 3)
Experimental: Male C3H/HeN that were seven weeks old in a telogen hair cycle were used.
The dorsal region of the mice was shaved with an electrical hair clipper (0.05 mm blades) and an electrical shaver. From the next day, 0.1 ml of a 50 μmol/g ointment of the compound 4 or 5 was coated on the shaved regions once a day using a bacteria spreader. The controls were given only coating stimulation with a bacteria spreader.
The dorsal region of the mice on Day 18 after the initiation of coating was photographed. The proportion of the area of the region where hair had regrown relative to the total area of the shaved region was calculated by image analysis. The value obtained thereby indicated the hair regrowth rate (%). Significant difference was tested by a post-hoc test (Scheffe method). The significance level was 5%.
In this experiment, n=6 for the test substances and n=7 for the controls.

[2] = system: three dimensional human skin model MEL-300 (normal human skin keratinocytes containing normal human epidermal melanocytes); test: Melanin synthesis inhibitory test (three dimensional human skin model); assay type: cell-based; settings: 0.1 ml of a 30 mmol/l solution, MEL-300 cups, 14 days of incubation, vs 0.2% ethanol control, Scheffe, significance level 1%, n=3 (FIG. 2)
Experimental: as §1, with “4 or” for “4 and”
as §2, with “solution. The positive controls were given 0.1 ml of a 30 mmol/l kojic acid solution.” for “solution.”
The maintenance medium and the test substance were replaced every two days, and the incubation was performed for 14 days. […]
After the reaction, the reaction liquid was sufficiently stirred and the incubated skin piece was completely crushed. […] The supernatant was analyzed to determine the absorbance at 405 nm. A linear calibration curve was prepared based on the absorbances of melanin solutions of known concentrations that had been treated similarly. The melanin contents in the incubated skin pieces were thus determined. […]

[3] = background art statement; cited from earlier work

| SMILES | formation of melanocyte dendrites (proportion (%) of the area of melanocytes by image analysis) [1] | hair regrowth rate (%) (C3H mice) | melanin production (melanin contents in the incubated skin pieces, absorbance at 405 nm) [2] | solubility in water [3] |
| --- | --- | --- | --- | --- |
| COc1c(OC(=O)CN(C)C)c(C)c(CC=C(C)CCC=C(C)CCC=C(C)CCC=C(C)CCC=C(C)CCC=C(C)CCC=C(C)CCC=C(C)CCC=C(C)CCC=C(C)C)c(OC(=O)CN(C)C)c1OC.Cl [Compound 4, 2,3-dimethoxy-5-methyl-6-decaisoprenylbenzene 1,4-bis-N,N-dimethyl glycinate hydrochloride] | significantly inhibited | significantly increased | significantly decreased |  |
| COc1c(O)c(CC=C(C)CCC=C(C)CCC=C(C)CCC=C(C)CCC=C(C)CCC=C(C)CCC=C(C)CCC=C(C)CCC=C(C)CCC=C(C)C)c(C)c(OC(=O)CN(C)C)c1OC.Cl [Compound 5, 2,3-dimethoxy-5-methyl-6-decaisoprenyl-1-hydroxybenzene 4-N,N-dimethyl glycinate hydrochloride] | significantly inhibited | significantly increased | significantly decreased |  |
| COC1=C(OC)C(=O)C(CC=C(C)CCC=C(C)CCC=C(C)CCC=C(C)CCC=C(C)CCC=C(C)CCC=C(C)CCC=C(C)CCC=C(C)CCC=C(C)C)=C(C)C1=O [ubiquinone-10, 2,3-dimethoxy-5-methyl-6-decaisoprenyl-1,4-benzoquinone] |  |  |  | completely insoluble in water |
